Experimental findings from patent publication US20210355115A1, “ISOXAZOLE CARBOXAMIDE COMPOUNDS AND USES THEREOF” (Novartis AG, priority 2018, published 2021) are described below.

One test deals with mouse cochlea explants with hair cell damage. Put plainly: Ex vivo hair cell induction assay using 6-day-postnatal mouse cochlea explants with hair cell damage. Type of test: cell-based. As to conditions: 10 μM; neomycin-damaged P6 Atoh1-GFP mouse cochlea explants; 8 days treatment; Mean ± SD; DMSO control 0. As for the experimental part: Ex Vivo Hair Cell Induction Assay Using 6-Day-Postnatal Mouse Cochlea Explants with Hair Cell Damage
P6, postnatal 6 days, Atoh1-GFP mice, the same mouse strain used for Atoh1 induction assay described before, were used in this assay. The otic capsule was exposed and the cochleae were micro-dissected. The basilar membrane was separated from the organ of Corti and in vitro cultured in serum free medium (culture medium: DMEM/F12+1% N2+2% B27+5 μg/ml ampicillin) at 37° C. under a standard gas atmosphere of humidified air/5% CO2. Inner ear hair cells were damaged by 1 mM Neomycin treatment for […] After the neomycin treatment, explants were cultured in blank culture medium for 7 days before the treatment of selected compounds.
For compound administration, the cochlea explants were treated with 3 to 10 μM compound of the present disclosure, with DMSO as the negative control for 8 days with once compound/medium change. After 8 days treatment, the tested compound was removed. The explants were cultured in blank medium for additional 4 days. The cochlea explant cultures then were fixed with 4% w/v formalin and processed for Myo7a immunofluorescence (Myo7a is a specific marker for sensory hair cell) using the rabbit anti-Myo7a antibody (Protus Biosci #25-6790, 1:250 diluted in PBS containing 3% BSA). Rhodamine labeled Goat-anti-rabbit IgG (Molecular Prob. #R6394, 1:1000 diluted in PBS containing 3% BSA) was used as the secondary antibody to visualize the Myo7a positive cells. The images were collected and analyzed using the EVOS image system (Thermo-Fisher Scientific). […] The hair cell identity of the ectopically formed cells was confirmed by staining the cells with multiple hair cell markers.
The efficacy of hair cells induction in this assay is represented by the responsive length percentage of Atoh1 and Myo7a double positive cells in the damaged whole explants after compound treatment. The responsive length percentage was calculated according to the equation of ((the explant length with Atoh1 and Myo7a double positive cells/the full length of cochlea explant)*100%). Note the value of DMSO control is 0% due to total damage of hair cells, and any responsive length percentage more than 20% is considered as significant hair cell induction.
On to `NC(=O)C1CN(CCCCCNC(=O)c2cc(-c3cccs3)on2)CC1O` (single isomer, unassigned) [33 peak 1], for which the “Atoh1-GFP/Myo7a cell numbers in 25%-50% length from Apex” value was 19.4 ± 2.7 and the “Response ratio (Response length/full length %)” value was 62.1 ± 11.8%.

Consider `NC(=O)[C@@H]1CN(CCCCCNC(=O)c2cc(-c3cccs3)on2)CC[C@H]1O` [35 trans], for which the “Atoh1-GFP/Myo7a cell numbers in 25%-50% length from Apex” value stood at 14.2 ± 1.8 and the “Response ratio (Response length/full length %)” value turned out to be 63.9 ± 5.8%.

Take `NC(=O)CN1CCN(CCCCCNC(=O)c2cc(-c3cccs3)on2)CC1` [Example 18, N-(5-(4-(2-amino-2-oxoethyl)piperazin-1-yl)pentyl)-5-(thiophen-2-yl)isoxazole-3-carboxamide]: the “Atoh1-GFP/Myo7a cell numbers in 25%-50% length from Apex” value came out at 16.1 ± 3.0 and the “Response ratio (Response length/full length %)” value is reported as 59.4 ± 5.3%.

For the compound `NC(=O)[C@H](O)CN1CCN(CCCCCNC(=O)c2cc(-c3cccs3)on2)CC1` [Example 37 R, (R)—N-(5-(4-(3-amino-2-hydroxy-3-oxopropyl)piperazin-1-yl)pentyl)-5-(thiophen-2-yl)isoxazole-3-carboxamide], the “Atoh1-GFP/Myo7a cell numbers in 25%-50% length from Apex” value is reported as 13.6 ± 4.0 and the “Response ratio (Response length/full length %)” value came out at 42.2 ± 7.7%.

For the compound `NC(=O)[C@@H](O)CN1CCN(CCCCCNC(=O)c2cc(-c3cccs3)on2)CC1` [Example 37 S, (S)—N-(5-(4-(3-amino-2-hydroxy-3-oxopropyl)piperazin-1-yl)pentyl)-5-(thiophen-2-yl)isoxazole-3-carboxamide], the “Atoh1-GFP/Myo7a cell numbers in 25%-50% length from Apex” value is listed as 11.1 ± 3.0 and the “Response ratio (Response length/full length %)” value stood at 50.1 ± 16.8%.

For `NC(=O)C(O)CN1CCN(CCCCCNC(=O)c2cc(-c3cccs3)on2)CC1` (stereo not shown) [Example 37, N-(5-(4-(3-amino-2-hydroxy-3-oxopropyl)piperazin-1-yl)pentyl)-5-(thiophen-2-yl)isoxazole-3-carboxamide], the “Atoh1-GFP/Myo7a cell numbers in 25%-50% length from Apex” value is recorded as 16.3 ± 4.0 and the “Response ratio (Response length/full length %)” value is 56.9 ± 8.8%.

The next test deals with Atoh1. Put plainly: Atoh1 induction assay in mouse cerebellar neural precursor cells (Atoh1-GFP reporter assay). Type of test: cell-based. Particulars: maximum fold difference over DMSO control (=1), cerebellar NPCs from Atoh1-GFP mice, 10 doses 50 μM to 200 nM, 72 hours treatment, read-out: Fold Difference (ratio of Atoh1-GFP average intensity_FC to DMSO_Max). As for the experimental part: Atoh1 induction assay was conducted with in vitro cultured cerebellar neural precursor cells isolated from neonatal transgenic Atoh1-GFP mice. Atoh1 expression is mainly regulated by the enhancer, and the nuclear GFP was driven by the cloned enhancer sequence at 3′ of Atoh1 which had high conservation among mammalians So Atoh1 induction could be reflected by GFP activation in cerebellar neural precursor cells (Helms et al., Development 2000; 127: 1185-1196; Lumpkin et al., Gene Expression Patterns 2003; 3: 389-395). Postnatal 3 days pups were dissected for cerebellum tissue isolation. The cerebellum tissue was cut into small pieces, and dissociated with 0.05% Trypsin for about 10 minutes at 37° C., and then filtered with a 70 uM cell strainer. The cells were cultured as neuropsheres for the first 2 days in ultra-low attachment dish/well-plate with DMEM/F12+1% N2 &2% B27 with 1% P/S, 20 ng/ml rhFGF2 and 20 ng/ml rhEGF (R&D Systems). Then the spheres were plated to the matrigel (1:30 diluted in DMEM/F12)-coated tissue culture dish for monolayer culture. After 4.5-5.5 days culture in vitro (DIV), cells were dissociated with 0.05% trypsin into single cells, and frozen after cell number calculation.
The cerebellar neural precursor cells (NPCs) were re-thawed from stock and cultured for another 2 days before used for Atoh1 induction assay. On the first day of assay, NPCs were seeded into matrigel-coated 384 well plates (Black view-plate, PE) at 2500 cells/well. After over-night culture, the NPCs were treated with representative compounds of the present disclosure with 1:2 serial dilutions for 10 doses, from 50 μM to 200 nM, with DMSO as negative control. After 72 hours treatment without medium change, the cells were fixed with 4% formalin for staining Assay plates were stained with GFP antibody (Abcam, #13970, 1:1000) to amplify endogenous GFP signal and then read by Cellomics. […] Table 1 Atoh1 activation by treatment of Compounds of the present disclosure (Atoh1-GFP reporter assay in cerebellar NPCs)
(In a reporter assay the amount or activity of a reporter protein is the signal.)
In the case of `NC(=O)C1CN(CCCCCNC(=O)c2cc(-c3cccs3)on2)CC1O` (single isomer, unassigned) [33 peak 1], the maximal fold induction is 34.8.

In the case of `NC(=O)[C@@H]1CN(CCCCCNC(=O)c2cc(-c3cccs3)on2)CC[C@H]1O` [35 trans], the maximal fold induction was 24.8.

On to `NS(=O)(=O)C1CCN(CCCCCNC(=O)c2cc(-c3cccs3)on2)CC1` [Example 14, N-(5-(4-sulfamoylpiperidin-1-yl)pentyl)-5-(thiophen-2-yl)isoxazole-3-carboxamide], for which the maximal fold induction was determined as 23.8.

As for `NS(=O)(=O)C1CCN(CCCCCNC(=O)c2cc(-c3ccc(F)cc3)on2)CC1` [Example 15, 5-(4-fluorophenyl)-N-(5-(4-sulfamoylpiperidin-1-yl)pentyl)isoxazole-3-carboxamide], the maximal fold induction was found to be 18.9.

As to `N#C[C@H]1CCN(CCCCCNC(=O)c2cc(-c3cccs3)on2)C[C@@H]1O` [Example 16, N-(5-((3R,4R)-4-cyano-3-hydroxypiperidin-1-yl)pentyl)-5-(thiophen-2-yl)isoxazole-3-carboxamide], the maximal fold induction came out at 32.3.

As to `NC(=O)CCN1CCN(CCCCCNC(=O)c2cc(-c3cccs3)on2)CC1` [Example 17, N-(5-(4-(3-amino-3-oxopropyl)piperazin-1-yl)pentyl)-5-(thiophen-2-yl)isoxazole-3-carboxamide], the maximal fold induction was 20.4.

For the compound `NC(=O)CN1CCN(CCCCCNC(=O)c2cc(-c3cccs3)on2)CC1` [Example 18, N-(5-(4-(2-amino-2-oxoethyl)piperazin-1-yl)pentyl)-5-(thiophen-2-yl)isoxazole-3-carboxamide], the maximal fold induction came out at 20.4.

On to `NS(=O)(=O)CCN1CCN(CCCCCNC(=O)c2cc(-c3cccs3)on2)CC1` [Example 19, N-(5-(4-(2-sulfamoylethyl)piperazin-1-yl)pentyl)-5-(thiophen-2-yl)isoxazole-3-carboxamide], for which the maximal fold induction is 16.3.

Turning to `NC(=O)C1CCN(CCCCCNC(=O)c2cc(-c3cccs3)on2)CC1` [Example 20, N-(5-(4-cathamoylpiperidin-1-yl)pentyl)-5-(thiophen-2-yl)isoxazole-3-carboxamide], the maximal fold induction was determined as 14.7.

With `NC(=O)C1(O)CN(CCCCCNC(=O)c2cc(-c3cccs3)on2)C1` [Example 21, N-(5-(3-carbamoyl-3-hydroxyazetidin-1-yl)pentyl)-5-(thiophen-2-yl)isoxazole-3-carboxamide], the maximal fold induction is 20.8.

As to `CNC(=O)C1CN(CCCCCNC(=O)c2cc(-c3ccc(F)s3)on2)C1` [Example 22, 5-(5-fluorothiophen-2-yl)-N-(5-(3-(methylcarbamoyl)azetidin-1-yl)pentyl)isoxazole-3-carboxamide], the maximal fold induction is 16.8.

For the compound `NC(=O)C1CN(CCCCCNC(=O)c2cc(-c3ccc(F)s3)on2)C1` [Example 23, N-(5-(3-carbamoylazetidin-1-yl)pentyl)-5-(5-fluorothiophen-2-yl)isoxazole-3-carboxamide], the maximal fold induction worked out at 24.3.

Take `CC(C#N)NC(=O)C1CN(CCCCCNC(=O)c2cc(-c3ccc(F)cc3)on2)C1` (stereo not shown) [Example 24, N-(5-(3-((1-cyanoethyl)carbamoyl)azetidin-1-yl)pentyl)-5-(4-fluorophenyl)isoxazole-3-carboxamide]: the maximal fold induction was found to be 18.3.

`CN1CCN(CCCCCNC(=O)c2cc(-c3cccs3)on2)CC1C(N)=O` (stereo not shown) [Example 25, N-(5-(3-carbamoyl-4-methylpiperazin-1-yl)pentyl)-5-(thiophen-2-yl)isoxazole-3-carboxamide]: the maximal fold induction was 13.1.

For the compound `NC(=O)C1(O)CCN(CCCCCNC(=O)c2cc(-c3cccs3)on2)CC1` [Example 26, N-(5-(4-carbamoyl-4-hydroxypiperidin-1-yl)pentyl)-5-(thiophen-2-yl)isoxazole-3-carboxamide], the maximal fold induction is 16.3.

Take `O=C(NCCCCCN1CC(C(=O)N[C@H]2CCC[C@H]2O)C1)c1cc(-c2ccc(F)cc2)on1` [Example 27, 5-(4-fluorophenyl)-N-(5-(3-(((1S,2R)-2-hydroxycyclopentyl)carbamoyl)azetidin-1-yl)pentyl)isoxazole-3-carboxamide]: the maximal fold induction came to 13.5.

As to `NC(=O)[C@@H]1CCN(CCCCCNC(=O)c2cc(-c3cccs3)on2)C[C@@H]1F` [Example 28-cis, N-(5-((3R,4S)-4-carbamoyl-3-fluoropiperidin-1-yl)pentyl)-5-(thiophen-2-yl)isoxazole-3-carboxamide], the maximal fold induction stood at 11.9.

`NC(=O)[C@@H]1CCN(CCCCCNC(=O)c2cc(-c3cccs3)on2)C[C@H]1F` [Example 28-trans, N-(5-((3S,4S)-4-carbamoyl-3-fluoropiperidin-1-yl)pentyl)-5-(thiophen-2-yl)isoxazole-3-carboxamide]: the maximal fold induction worked out at 16.8.

On to `N#C[C@H]1CCN(CCCCCNC(=O)c2cc(-c3cccs3)on2)C[C@@H]1C(N)=O` [Example 29, N-(5-((3R,4S)-3-carbamoyl-4-cyanopiperidin-1-yl)pentyl)-5-(thiophen-2-yl)isoxazole-3-carboxamide], for which the maximal fold induction is 15.4.

Turning to `NC(=O)C1CCN(CCCCCNC(=O)c2cc(-c3ccc(F)cc3)on2)CC1O` (stereo not shown) [Example 31, N-(5-(4-carbamoyl-3-hydroxypiperidin-1-yl)pentyl)-5-(4-fluorophenyl)isoxazole-3-carboxamide], the maximal fold induction was 14.7.

For `O=C(NCCCCCN1CC(C(=O)NC2COCC2O)C1)c1cc(-c2cccs2)on1` (stereo not shown) [Example 36, N-(5-(3-((4-hydroxytetrahydrofuran-3-yl)carbamoyl)azetidin-1-yl)pentyl)-5-(thiophen-2-yl)isoxazole-3-carboxamide], the maximal fold induction stood at 13.6.

As to `NC(=O)C(O)CN1CCN(CCCCCNC(=O)c2cc(-c3cccs3)on2)CC1` (stereo not shown) [Example 37, N-(5-(4-(3-amino-2-hydroxy-3-oxopropyl)piperazin-1-yl)pentyl)-5-(thiophen-2-yl)isoxazole-3-carboxamide], the maximal fold induction was determined as 27.6.
